Assay [1] deals with zone of injury. Conditions: topical EGCG, zonal priming; cited from earlier work.
Assay [2] concerns MCT and MCC. Put plainly: QRT-PCR of MCT and MCC in scar biopsies. Type of assay: in vivo, human. The conditions noted are these: week 4, all groups, p<0.05. How it is done: A double-blind randomized placebo-controlled trial was conducted using a temporal punch-biopsy model. The punch biopsy and topical application methodology used in the study is illustrated in FIG. 1, namely showing pre-injury pre-emptive priming (7-days), pre-injury pre-emptive priming (3-days), day of injury (immediate application on day 0), post-injury (delayed 2 weeks post injury) including biopsy time points and time of topical applications. Each group applied both placebo and topical formulations twice daily for the duration of the study until week 8, with only the starting time point differing between groups Participants were split into 4 groups (n=10 in each group) in order to compare different modes (timings) of commencement of the topical application: • Group-1: Pre-emptive Priming (7-days): pre-injury • Group-2: Pre-emptive Priming (3-days): pre-injury • Group-3: Immediate (0-day): day-of-injury • Group-4: Delayed (14-days): post-injury Clinical quantitative devices were used to objectively monitor cutaneous healing at weekly intervals and punch biopsies were performed on day 0 (uninjured skin) and at weeks 4 and 8 for protein and gene expression analyses. […] Excisional skin biopsies in upper arms were evaluated weekly with multiple quantitative devices over an 8-week period. […] MCT, MCC and CKit quantitative measurements are expressed in mm^2.

The test system of assay [3] is VEGF-A. Nature of the assay: Gene expression analysis of VEGF-A. Type of assay: in vivo, human. Conditions: week 4, groups 1-2 and 4, p<0.05. How it is done: (§1) A double-blind randomized placebo-controlled trial was conducted using a temporal punch-biopsy model. The punch biopsy and topical application methodology used in the study is illustrated in FIG. 1, namely showing pre-injury pre-emptive priming (7-days), pre-injury pre-emptive priming (3-days), day of injury (immediate application on day 0), post-injury (delayed 2 weeks post injury) including biopsy time points and time of topical applications. Each group applied both placebo and topical formulations twice daily for the duration of the study until week 8, with only the starting time point differing between groups Participants were split into 4 groups (n=10 in each group) in order to compare different modes (timings) of commencement of the topical application: • Group-1: Pre-emptive Priming (7-days): pre-injury • Group-2: Pre-emptive Priming (3-days): pre-injury • Group-3: Immediate (0-day): day-of-injury • Group-4: Delayed (14-days): post-injury Clinical quantitative devices were used to objectively monitor cutaneous healing at weekly intervals and punch biopsies were performed on day 0 (uninjured skin) and at weeks 4 and 8 for protein and gene expression analyses. […] Excisional skin biopsies in upper arms were evaluated weekly with multiple quantitative devices over an 8-week period. […]

In assay [4] the test system is CD31. Nature of the assay: QRT-PCR for CD31. The format is in vivo, human. Conditions: week 4, all groups. The method, then:
as §1

Assay [5] relates to langerin. Nature of the assay: Langerin immunohistochemical marker in scar biopsies. Type of assay: in vivo, human. Conditions: week 4, group-1 only (7-day pre-injury priming), p=0.02. How it is done:
as §1

Turning to `O=C(OC1Cc2c(O)cc(O)cc2OC1c1cc(O)c(O)c(O)c1)c1cc(O)c(O)c(O)c1` (single isomer, unassigned; (-)) [EGCG, (-)-epigallocatechin-3-gallate], the “Scar outcome, immediate application to zone of injury compared with delayed application two-weeks post-wounding” value in assay [1] was “reduced scar thickness and angiogenesis, plus increased hydration and elasticity”. In assay [2], the “QRT-PCR MCC expression, EGCG-treated samples” value is given as “down-regulation” and the “QRT-PCR MCT expression, EGCG-treated samples” value was “down-regulation”. The “VEGF-A gene expression, EGCG-treated samples compared to placebo” value in assay [3] is “significant reductions”. For the same compound, the “QRT-PCR CD31, EGCG-treated samples compared to placebo” value in assay [4] was “significant down regulation”. In assay [5], the “langerin reduction in EGCG-treated samples compared to placebo” value is reported as 13%.

Values taken from US12691092B2, “Method for reducing cutaneous skin scarring by pre-emptive priming and compounds and compositions for its implementation” (SOS SCIENCE OF SKIN LTD, priority 2020, dated 2026).
